Source: US20110195929A1, “COMPOUNDS FOR THE TREATMENT OF FLAVIVIRAL INFECTIONS” (SUMMIT CORPORATION PLC, priority 2008, published 2011)
Read-outs that look alike come from different tables or passages of the source.

Assays:
α-D-glucosidase [1] = molecular target: T1, α-D-glucosidase (Saccharomyces cerevisiae, UniProt P53341); experiment: Glycosidase inhibition: α-D-glucosidase (yeast); assay type: biochemical, Saccharomyces cerevisiae (Baker's yeast); conditions: 1 mg/ml; pH 6.0, 20° C; read-out: % inhibition α-gluc (yeast)
T1 construct: purchased Sigma
T1 sequence (P53341 whole entry): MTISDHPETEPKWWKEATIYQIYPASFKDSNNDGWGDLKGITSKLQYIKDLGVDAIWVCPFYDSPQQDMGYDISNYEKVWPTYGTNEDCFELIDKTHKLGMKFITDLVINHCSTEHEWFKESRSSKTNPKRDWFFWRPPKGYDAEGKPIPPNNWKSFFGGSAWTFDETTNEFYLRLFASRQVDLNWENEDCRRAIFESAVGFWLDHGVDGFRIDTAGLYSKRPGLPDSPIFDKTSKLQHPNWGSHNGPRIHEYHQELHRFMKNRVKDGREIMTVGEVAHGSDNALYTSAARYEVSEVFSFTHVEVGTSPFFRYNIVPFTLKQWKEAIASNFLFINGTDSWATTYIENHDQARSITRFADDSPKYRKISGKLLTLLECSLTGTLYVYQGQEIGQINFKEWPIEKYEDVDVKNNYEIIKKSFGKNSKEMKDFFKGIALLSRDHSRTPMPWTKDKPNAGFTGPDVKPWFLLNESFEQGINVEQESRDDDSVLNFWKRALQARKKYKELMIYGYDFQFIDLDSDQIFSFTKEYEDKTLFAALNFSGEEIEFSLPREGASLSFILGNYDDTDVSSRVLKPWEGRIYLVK
Experimental: (§1) Inhibition of the N-linked glycan trimming enzymes alpha-Glucosidases I and II or alpha-Mannosidases I and II are thought to be related to the anti-viral activity of castanospermine (Compound 104) and 1-deoxynojirimycin (Compound 193). […] All enzymes were purchased from Sigma, as were the appropriate p-nitrophenyl substrates. Assays were carried out in microtitre plates. Enzymes were assayed in 0.1M citric acid/0.2M di-sodium hydrogen phosphate (McIlvaine) buffers at the optimum pH for the enzyme. All assays were carried out at 20° C. For screening assays the incubation assay consisted of 10 μl of enzyme solution, 10 μl of inhibitor solution (made up in water at 5 mM) and 50 μl of the appropriate 5 mM p-nitrophenyl substrate (3.57 mM final conc.) made up in McIlvaine buffer at the optimum pH for the enzyme.
(§2) The reactions were stopped with 0.4M glycine (pH 10.4) during the exponential phase of the reaction, which was determined at the beginning of the assay using blanks with water, which were incubated for a range of time periods to measure the reaction rate using 5 mM substrate solution. Endpoint absorbances were read at 405 nm with a Bio-rad microtitre plate reader (Benchmark). Water was substituted for the inhibitors in the blanks.

[2] = system: N-acetyl-β-D-glucosaminidase; experiment: Glycosidase inhibition: N-acetyl-β-D-glucosaminidase; assay type: biochemical, Bovine kidney; conditions: 1 mg/ml; pH 4.25, 20° C
Experimental: as §1, §2

α-D-glucosidase [3] = experiment: Glycosidase inhibition: α-D-glucosidase (Bacillus); assay type: biochemical, Bacillus stearothermophilus; conditions: 1 mg/ml; pH 6.0, 20° C
Experimental: as §1, §2

BVDV = BVDV plaque inhibition assay; assay type: cell-based, bovine diarrhoea virus (BVDV); conditions: for IC50: Bovine viral diarrhea virus isolates and strains, in Bos taurus; for % untreated control: Example 5
Experimental: BVDV Plaque Assay: In the absence of a suitable cell culture system able to support replication of human HCV, bovine diarrhoea virus (BVDV) is an accepted cell culture model. HCV and BVDV share a significant degree of local protein homology, a common replication strategy and probably the same subcellular location for viral envelopment.
(§3) The materials and procedures were as described in Whitby et al. (2004) Antiviral Chemistry and Chemotherapy 15: 141-151. In brief, MDBK cells were seeded in 96 well plates and allowed to reach confluency. Monolayers were exposed to between 14 and 45 plaque forming units of BVDV and adsorption allowed to take place. Infected monolayers were then exposed to the test compound, medium added containing low gelling-point agarose and allowed to set. The plates were then incubated for 4 days post infection, fixed in 5% formalin and stained with 0.5% neutral red after removal of the agarose layer. Anti-viral activity was measured by determination of plaque inhibition and expressed as IC50 values. Castanospermine, a known viral inhibitor, was used as a positive control.
For these assays a confluent monolayer of MDBK cells is produced in a flat bottomed well of a tissue culture plate. The monolayer is infected with BVDV. Sufficient virus is added to eventually form approximately 20-30 plaques. After allowing approximately 1 hr for the virus to infect, the cells are washed and liquid agar is added and allowed to set as a thin layer over the cell surface (the ‘overlay’). The infected cells are then left for a period of days to allow the virus to replicate and cells to shed virus, detach or lyse. Cells in the immediate vicinity of the initial virus infection are therefore infected—localized by the agar layer.
The test compound is added at appropriate dilutions with the virus. An antiviral effect of the compound is scored by the reduction of plaque number or size. The concentration of compound required to produce a 50% (IC50) reduction of plaque number or size is noted. Controls of no compound added are included. A control of a known antiviral compound (castanospermine) is carried out to calibrate the antiviral activity.
Plaque Assay: The materials and procedures were as described in Whitby et al. (2004) Antiviral Chemistry and Chemotherapy 15: 141-151.
as §3, with “In” for “The materials and procedures were as described in Whitby et al. (2004) Antiviral Chemistry and Chemotherapy 15: 141-151. In”, “Castanospermine (Compound 104),” for “Castanospermine,”

β-D-glucosidase = experiment: Glycosidase inhibition: β-D-glucosidase; assay type: biochemical, Almonds (Prunus sp.); conditions: 1 mg/ml; pH 5.0, 20° C
Experimental: as §1, §2

α-D-galactosidase = molecular target: T2, α-D-galactosidase (Coffea arabica, UniProt Q42656); experiment: Glycosidase inhibition: α-D-galactosidase; assay type: biochemical, Green coffee beans (Coffea sp.); conditions: 1 mg/ml; pH 6.5, 20° C
T2 construct: purchased Sigma
T2 sequence (Q42656 16-378): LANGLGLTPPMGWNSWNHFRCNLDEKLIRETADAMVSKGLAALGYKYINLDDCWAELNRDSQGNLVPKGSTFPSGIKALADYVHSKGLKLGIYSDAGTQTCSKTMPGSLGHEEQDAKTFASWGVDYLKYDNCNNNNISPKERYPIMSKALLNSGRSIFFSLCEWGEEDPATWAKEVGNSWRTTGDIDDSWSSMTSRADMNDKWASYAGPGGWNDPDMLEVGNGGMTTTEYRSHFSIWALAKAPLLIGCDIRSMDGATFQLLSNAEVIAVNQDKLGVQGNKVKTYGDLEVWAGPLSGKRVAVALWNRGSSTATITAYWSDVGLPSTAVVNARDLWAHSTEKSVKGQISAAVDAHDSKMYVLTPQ
Experimental: as §1, §2

HCV = experiment: Cell-based HCV infection NS3 protease FRET assay in DMSO-Huh7 cells; set-up: species or system hepatitis C virus (HCV); conditions: DMSO-Huh7 cells infected with HCV at 0.05 ffu/cell; HCV NS3 protein levels by FRET, day 6 p.i.
α-D-glucosidase [4] = molecular target: T3, α-D-glucosidase (Oryza sativa subsp. japonica, UniProt Q653V7); experiment: Glycosidase inhibition: α-D-glucosidase (rice); assay type: biochemical, rice (Oryza sativa); conditions: 1 mg/ml; pH 6.0, 20° C; read-out: % inhibition α-gluc (rice)
T3 construct: purchased Sigma
T3 sequence (Q653V7 34-885): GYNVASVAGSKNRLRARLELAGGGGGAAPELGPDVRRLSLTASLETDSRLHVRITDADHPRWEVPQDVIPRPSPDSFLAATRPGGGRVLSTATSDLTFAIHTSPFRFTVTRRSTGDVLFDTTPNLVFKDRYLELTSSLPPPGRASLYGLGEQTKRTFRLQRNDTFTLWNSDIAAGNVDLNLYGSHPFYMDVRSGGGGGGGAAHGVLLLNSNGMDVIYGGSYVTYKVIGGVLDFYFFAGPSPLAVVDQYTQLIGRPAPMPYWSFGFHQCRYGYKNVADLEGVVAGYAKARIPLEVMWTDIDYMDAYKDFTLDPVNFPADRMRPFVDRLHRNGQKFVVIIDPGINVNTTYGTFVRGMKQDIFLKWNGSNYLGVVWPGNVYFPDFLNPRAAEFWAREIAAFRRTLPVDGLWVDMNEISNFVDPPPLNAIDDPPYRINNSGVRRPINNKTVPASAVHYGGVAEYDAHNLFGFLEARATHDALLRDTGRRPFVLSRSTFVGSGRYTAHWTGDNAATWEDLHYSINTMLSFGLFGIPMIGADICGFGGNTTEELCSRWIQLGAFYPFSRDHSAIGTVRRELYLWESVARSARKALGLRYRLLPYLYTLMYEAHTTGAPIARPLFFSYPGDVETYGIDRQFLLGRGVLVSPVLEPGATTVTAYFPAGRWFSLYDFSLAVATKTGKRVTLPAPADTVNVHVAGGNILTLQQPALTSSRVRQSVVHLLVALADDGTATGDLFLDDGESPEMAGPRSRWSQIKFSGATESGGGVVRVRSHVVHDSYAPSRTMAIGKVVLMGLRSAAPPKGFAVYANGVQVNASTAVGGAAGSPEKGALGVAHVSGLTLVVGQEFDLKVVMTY
Experimental: as §1, §2

[5] = MDBK, 96 h, read-out: IC50 (μg/ml)
[6] = Examples 1-3, 50% reduction of plaque number or size, MDBK cells, read-out: IC50 (μg/ml)

Structure (SMILES)	inhibition at 1000 µg/mL (α-D-glucosidase [1]) [%]	% inhibition N-acetyl-β-gluc [2] [%]	% inhibition α-gluc (Bacillus) (α-D-glucosidase [3]) [%]	IC50 (BVDV; MDBK, 96 h, read-out: IC50) [µM]	IC50 (BVDV; [5]) [µg/mL]	% untreated control (BVDV; dose 32 μg/ml (0.17 mM)) [%]	% untreated control (BVDV; dose 63 μg/ml (0.33 mM)) [%]	% untreated control (BVDV; dose 125 μg/ml (0.65 mM)) [%]	% untreated control (BVDV; dose 250 μg/ml (1.30 mM)) [%]	% untreated control (BVDV; dose 500 μg/ml (2.60 mM)) [%]	% inhibition β-glucosidase (β-D-glucosidase) [%]	inhibition at 1000 µg/mL (α-D-galactosidase) [%]	Ave % inhibition (HCV)	inhibition at 1000 µg/mL (α-D-glucosidase [4]) [%]	IC50 (BVDV; [6]) [µg/mL]	% untreated control (BVDV; dose 6.0 μg/ml (0.03 mM)) [%]	% untreated control (BVDV; dose 12.5 μg/ml (0.07 mM)) [%]	% untreated control (BVDV; dose 25.0 μg/ml (0.13 mM)) [%]	% untreated control (BVDV; dose 50.0 μg/ml (0.26 mM)) [%]	% untreated control (BVDV; dose 100.0 μg/ml (0.53 mM)) [%]
CC[C@@H]1N[C@@H](CO)[C@H](O)[C@@H](O)[C@@H]1O [Compound 23, (2S,3R,4S,5S,6S)-2-ethyl-6-(hydroxymethyl)piperidine-3,4,5-triol]	0	0	0	420	80	83	56	47	35	22	28	0	+ (+: ≦19%)	66						
CC[C@@H](O)[C@H]1N[C@H](CO)[C@@H](O)[C@@H]1O [Compound 62, (2R,3R,4R,5R)-2-(hydroxymethyl)-5-((R)-1-hydroxypropyl)pyrrolidine-3,4-diol]	0	20	65								100	0	+ (+: ≦19%)	32	16.7					
CC(O)[C@H](O)[C@H]1N[C@H](CO)[C@@H](O)[C@@H]1O (stereo partly drawn) [Compound 63, (2R,3R,4R,5R)-2-((1R)-1,2-dihydroxypropyl)-5-(hydroxymethyl)pyrrolidine-3,4-diol]	0	0	36								93	0	+ (+: ≦19%)	41	87.2					
O[C@H]1[C@H](O)[C@@H](O)CN2CC[C@H](O)[C@H]12 [Compound 104, Castanospermine, reference compound]	0	0	0	120	22.5						88	0		90	15.6	98	67	46	12	1.1
OC[C@@H]1NC[C@H](O)[C@@H]1O [Compound 167, (2S,3R,4S)-2-(hydroxymethyl)pyrrolidine-3,4-diol]	0	19	35								22	32		58	57.6					
